Assay results taken from the PolyMetriX glass transition set.

Row | SMILES | glass transition temperature [°C]
1 | */C=C/C1CCC(*)C1 (repeat unit) | 31.00
2 | *C(=O)c1ccc2c(c1)C(=O)N(c1cccc(C(=O)c3ccc(C(=O)c4cccc(N5C(=O)c6ccc(*)cc6C5=O)c4)cc3)c1)C2=O (repeat unit) | 240.00
3 | *CCCCCCCCCCc1nc2ccc(-c3ccc4nc(*)oc4c3)cc2o1 (repeat unit) | 64.00
4 | *CCCCCCCCCc1nc2ccc(-c3ccc4nc(*)oc4c3)cc2o1 (repeat unit) | 64.00
5 | *CCCCCCCCc1nc2ccc(-c3ccc4nc(*)oc4c3)cc2o1 (repeat unit) | 223.50
6 | *CCCCCCCCc1nc2ccc(-c3ccc4nc(*)sc4c3)cc2s1 (repeat unit) | 238.00
7 | *CCCCCCCc1nc2ccc(-c3ccc4nc(*)oc4c3)cc2o1 (repeat unit) | 85.00
8 | *Oc1ccc(C(=O)c2cccc(C(=O)c3ccc(*)c(CC)c3)c2)cc1CC (repeat unit) | 126.00
9 | *Oc1ccc(C(=O)c2cccc(C(=O)c3ccc(*)cc3)c2)cc1 (repeat unit) | 139.00
10 | *c1ccc(-c2ccc(-c3ccc4c(c3)C(CCCCCCCC)(CCCCCCCC)c3cc(-c5ccc(*)s5)ccc3-4)s2)cn1 (repeat unit) | 127.50
11 | *c1ccc(Oc2ccc(-c3cc(-c4ccccc4)c4cc(C5(c6ccc7nc(*)cc(-c8ccccc8)c7c6)c6ccccc6C(=O)c6ccccc65)ccc4n3)cc2)cc1 (repeat unit) | 320.00
12 | *c1ccc(Oc2ccc(-c3nc4cc(S(=O)(=O)c5ccc6nc(-c7ccccc7)c(*)nc6c5)ccc4nc3-c3ccccc3)cc2)cc1 (repeat unit) | 290.00
13 | *c1ccc(Oc2cccc(N3C(=O)c4ccc(-c5ccc6c(c5)C(=O)N(*)C6=O)cc4C3=O)c2)cc1 (repeat unit) | 259.00
14 | *c1ccc(Oc2cccc(Oc3ccc(N4C(=O)c5ccc(-c6ccc7c(c6)C(=O)N(*)C7=O)cc5C4=O)cc3)c2)cc1 (repeat unit) | 234.00
15 | *c1ccc2c(c1)C(*)(C)CC2(C)C (repeat unit) | 215.50
16 | *c1ccc2c(c1)C(=O)N(c1ccc(S(=O)(=O)c3ccc(S(=O)(=O)c4ccc(N5C(=O)c6ccc(C(*)(C(F)(F)F)C(F)(F)F)cc6C5=O)cc4)cc3)cc1)C2=O (repeat unit) | 331.00
17 | *c1ccc2c(c1)C(=O)N(c1ccc(Sc3ccc(Sc4ccc(Sc5ccc(Sc6ccc(N7C(=O)c8ccc(C(*)(C(F)(F)F)C(F)(F)F)cc8C7=O)cc6)cc5)cc4)cc3)cc1)C2=O (repeat unit) | 216.00
18 | *c1ccc2c(c1)C(=O)N(c1ccc3c(c1)-c1cc(N4C(=O)c5ccc(C(*)(C(F)(F)F)C(F)(F)F)cc5C4=O)ccc1C3)C2=O (repeat unit) | 394.00

Row | SMILES | glass transition temperature [°C]
19 | *c1ccc2c(c1)C(=O)N(c1cccc(C(F)(F)C(F)(F)C(F)(F)C(F)(F)C(F)(F)c3cccc(N4C(=O)c5ccc(C(F)(F)C(F)(F)C(*)(F)F)cc5C4=O)c3)c1)C2=O (repeat unit) | 111.00
20 | *c1ccc2c(c1)C(=O)N(c1cccc(C(F)(F)C(F)(F)C(F)(F)C(F)(F)C(F)(F)c3cccc(N4C(=O)c5ccc(C(F)(F)C(F)(F)C(F)(F)C(*)(F)F)cc5C4=O)c3)c1)C2=O (repeat unit) | 144.00
21 | *c1ccc2c(c1)C(=O)N(c1cccc(C(F)(F)C(F)(F)C(F)(F)c3cccc(N4C(=O)c5ccc(C(F)(F)C(F)(F)C(*)(F)F)cc5C4=O)c3)c1)C2=O (repeat unit) | 157.00
22 | *c1ccc2c(c1)C(=O)N(c1cccc(C(c3ccccc3)(c3cccc(N4C(=O)c5ccc(C(*)(C(F)(F)F)C(F)(F)F)cc5C4=O)c3)C(F)(F)F)c1)C2=O (repeat unit) | 305.00
23 | *c1ccc2c(c1)C(=O)N(c1cccc(Oc3cc(Oc4cccc(N5C(=O)c6ccc(C(*)(C(F)(F)F)C(F)(F)F)cc6C5=O)c4)ccc3P(=O)(c3ccccc3)c3ccccc3)c1)C2=O (repeat unit) | 230.00
24 | *c1ccc2c(c1)C(=O)N(c1cccc(P(=O)(c3cccc(N4C(=O)c5ccc(C(*)(C(F)(F)F)C(F)(F)F)cc5C4=O)c3)c3cc(C(F)(F)F)cc(C(F)(F)F)c3)c1)C2=O (repeat unit) | 247.00
25 | *c1ccc2c(c1)Cc1cc(-n3c(=O)c4cc5c(=O)n(*)c(=O)c5cc4c3=O)ccc1-2 (repeat unit) | 322.00
26 | *c1ccc2c(c1)Sc1cc(-c3ccc(-c4ccc(*)s4)s3)ccc1N2CCCCCC (repeat unit) | 140.00
27 | *c1ccc2c3ccc(-c4ccc(-c5ccc(-c6ccc(*)s6)c6nccnc56)s4)cc3n(C(CCCCCCCC)CCCCCCCC)c2c1 (repeat unit) | 116.00
28 | *c1ccc2nc(*)cc(-c3ccccc3)c2c1 (repeat unit) | 415.00
29 | *c1ccc2oc(-c3ccc(-c4nc5cc(C(*)(C(F)(F)F)C(F)(F)F)ccc5o4)cc3)nc2c1 (repeat unit) | 371.50
30 | *c1ccc2oc(-c3cccc(-c4nc5cc(C(*)(C(F)(F)F)C(F)(F)F)ccc5o4)n3)nc2c1 (repeat unit) | 329.00
31 | *c1cccc(C(=O)c2ccc(Oc3ccc(N4C(=O)c5ccc(Oc6ccc7c(c6)C(=O)N(*)C7=O)cc5C4=O)cc3C(F)(F)F)cc2)c1 (repeat unit) | 224.00
32 | *c1cccc(N2C(=O)c3ccc(-c4cccc5c4C(=O)N(*)C5=O)cc3C2=O)c1 (repeat unit) | 341.00
33 | *c1cccc(N2C(=O)c3ccc(P(=O)(c4ccccc4)c4ccc5c(c4)C(=O)N(*)C5=O)cc3C2=O)c1 (repeat unit) | 323.00
34 | *c1cccc(OCCCCCCCCCCOc2cccc(N3C(=O)c4ccc(-c5cccc6c5C(=O)N(*)C6=O)cc4C3=O)c2)c1 (repeat unit) | 127.00
35 | *c1cccc(OCCCOc2cccc(N3C(=O)c4ccc(-c5ccc6c(c5)C(=O)N(*)C6=O)cc4C3=O)c2)c1 (repeat unit) | 184.00
36 | *c1cccc(Oc2ccc(P(=O)(c3ccccc3)c3ccccc3)c(Oc3cccc(N4C(=O)c5ccc(-c6ccc7c(c6)C(=O)N(*)C7=O)cc5C4=O)c3)c2)c1 (repeat unit) | 234.00

Results, then the molecule that gave them:

Row | glass transition temperature [°C] | SMILES
37 | 242.00 | *C(=O)c1ccc2c(c1)C(=O)N(c1cccc(C(=O)c3cccc(N4C(=O)c5ccc(*)cc5C4=O)c3)c1)C2=O (repeat unit)
38 | 136.00 | *Oc1ccc(C(=O)c2cccc(C(=O)c3ccc(*)c(C(C)C)c3)c2)cc1CC (repeat unit)
39 | 114.00 | *Oc1ccc(C(=O)c2cccc(C(=O)c3ccc(Oc4cccc(Cc5cccc(*)c5)c4)cc3)c2)cc1 (repeat unit)
40 | 405.00 | *c1ccc(-c2ccc(-c3c(-c4ccccc4)nc4ccc(-c5ccc6nc(-c7ccccc7)c(*)c(-c7ccccc7)c6c5)cc4c3-c3ccccc3)cc2)cc1 (repeat unit)
41 | 277.50 | *c1ccc(-c2nc3cc(S(=O)(=O)c4ccc5nc(*)c(-c6ccccc6)nc5c4)ccc3nc2-c2ccccc2)cc1 (repeat unit)
42 | 405.00 | *c1ccc(C2(c3ccc(-c4cc(-c5ccccc5)c5cc(C6(c7ccc8nc(*)cc(-c9ccccc9)c8c7)c7ccccc7C(=O)c7ccccc76)ccc5n4)cc3)c3ccccc3-c3ccccc32)cc1 (repeat unit)
43 | 240.00 | *c1ccc(OCCCCOc2ccc(-c3nc4ccc(-c5ccc6nc(*)c(-c7ccccc7)nc6c5)cc4nc3-c3ccccc3)cc2)cc1 (repeat unit)
44 | 249.00 | *c1ccc(Oc2ccccc2Oc2ccc(N3C(=O)c4ccc(-c5ccc6c(c5)C(=O)N(*)C6=O)cc4C3=O)cc2C(F)(F)F)c(C(F)(F)F)c1 (repeat unit)
45 | 227.10 | *c1ccc(Sc2ccc(Sc3ccc(Sc4ccc(N5C(=O)c6ccc(-c7ccc8c(c7)C(=O)N(*)C8=O)cc6C5=O)cc4)cc3)cc2)cc1 (repeat unit)
46 | 78.00 | *c1ccc2c(c1)C(=O)N(c1ccc(Oc3ccccc3-c3ccccc3Oc3ccc(N4C(=O)c5ccc(C(*)(C(F)(F)F)C(F)(F)F)cc5C4=O)cc3)cc1)C2=O (repeat unit)
47 | 257.00 | *c1ccc2c(c1)C(=O)N(c1ccc(Sc3ccc(Sc4ccc(N5C(=O)c6ccc(C(*)(C(F)(F)F)C(F)(F)F)cc6C5=O)cc4)cc3)cc1)C2=O (repeat unit)
48 | 232.00 | *c1ccc2c(c1)C(=O)N(c1cccc(NC(=O)C(F)(F)C(F)(F)C(F)(F)C(F)(F)C(=O)Nc3cccc(N4C(=O)c5ccc(C(*)(C(F)(F)F)C(F)(F)F)cc5C4=O)c3)c1)C2=O (repeat unit)
49 | 218.00 | *c1ccc2c(c1)C(=O)N(c1cccc(NC(=O)C(F)(F)C(F)(F)C(F)(F)C(F)(F)C(F)(F)C(F)(F)C(=O)Nc3cccc(N4C(=O)c5ccc(C(*)(C(F)(F)F)C(F)(F)F)cc5C4=O)c3)c1)C2=O (repeat unit)
50 | 390.00 | *c1ccc2c(c1)C(=O)N(c1cccc3c(N4C(=O)c5ccc(C(*)(C(F)(F)F)C(F)(F)F)cc5C4=O)cccc13)C2=O (repeat unit)
51 | 78.80 | *c1ccc2c(c1)C(CCCCCC)(CCCCCC)c1cc(-c3cc(CCCCCC)c(*)cc3CCCCCC)ccc1-2 (repeat unit)
52 | 114.00 | *c1ccc2c(c1)C(CCCCCC)(CCCCCC)c1cc(-c3ccc4c(c3)C(CC3=NC(Cc5ccccc5)CO3)(CC3=NC(Cc5ccccc5)CO3)c3cc(*)ccc3-4)ccc1-2 (repeat unit)
53 | 213.00 | *c1ccc2c(c1)C(CCCCCCCC)(CCCCCCCC)c1cc(-c3ccc4c(c3)C(c3ccc(-c5nnc(-c6ccc(C(C)(C)C)cc6)o5)cc3)(c3ccc(-c5nnc(-c6ccc(C(C)(C)C)cc6)o5)cc3)c3cc(*)ccc3-4)ccc1-2 (repeat unit)
54 | 317.00 | *c1cccc(-c2nc3cc(-c4ccc5nc(*)c(-c6ccc7ccccc7c6)nc5c4)ccc3nc2-c2ccc3ccccc3c2)c1 (repeat unit)
55 | 153.00 | *c1cccc(OCCCCCCOc2cccc(N3C(=O)c4ccc(-c5ccc6c(c5)C(=O)N(*)C6=O)cc4C3=O)c2)c1 (repeat unit)
